Legend:
human mGlu3 receptors = target: T1, human mGlu3 receptors (Homo sapiens, UniProt Q14832); assay: mGlu3 receptor cAMP antagonist assay; format: cell-based; conditions: reversal of DCG IV (EC90) inhibition of forskolin-stimulated cAMP; AV12 cells
T1 construct: expressed in transfected cells; host or cells: AV12 cells, co-expressing rat EAAT1
Protocol: mGlu2 and mGlu3 Receptor cAMP Antagonist Assays
Antagonist activity is assayed in recombinant AV12 cells stably expressing human mGlu2 or mGlu3 receptors and the rat glutamate transporter EAAT1 (Excitatory Amino Acid Transporter 1). The cell lines are maintained by culturing in DMEM with high glucose and pyridoxine hydrochloride supplemented with 5% dialyzed fetal bovine serum (FBS), 1 mM sodium pyruvate, 1 mM HEPES and 1 mM L-glutamine; geneticin and hygromycin B are used as selection antibiotics. Confluent cultures are grown at 37° C. in an atmosphere containing 6.5% CO2, and passaged biweekly. Cells are harvested using 0.25% trypsin, suspended in freeze media (FBS with 10% DMSO) at 10^7 cells/ml, and aliquots are stored in liquid nitrogen. Twenty-four hours before the assay, cells are plated at a density of 8,000-10,000 cells per well in a tissue culture treated, 96-well, half-area black plates (Costar 3875) in 50 μl of DMEM with high glucose and pyridoxine hydrochloride supplemented with 5% dialyzed FBS, 1 mM sodium pyruvate, 1 mM HEPES, 100 μg/ml ampicillin, and 250 μM (mGlu2) or 125 μM (mGlu3) of L-glutamine.
Reversal of the inhibition of forskolin-stimulated cAMP production by test compounds is measured using homogeneous time resolved fluorescence technology (HTRF; Cisbio cat #62AM4PEB). The medium is removed and the cells are incubated with 100 μl cAMP stimulation buffer (STIM) for 30 minutes at 37° C. (STIM buffer contains 500 ml HBSS, 1000 ml DPBS, 0.034% BSA, 1.67 mM HEPES and 500 μM IBMX (Sigma 15879).) Compounds are tested in 10-point concentration response curves using 3× serial dilution followed by further 40-fold dilution into STIM buffer. DCG IV (Tocris 0975) serves as the reference agonist. The final reaction mixture contains 1 μM (for mGlu2) or 3 μM (for mGlu3) of forskolin (Sigma F6886), DCG IV at its EC90, and up to 25 μM of test compound. Cells are incubated at 37° C. for 20 minutes. To measure the cAMP levels, cAMP-d2 conjugate and anti cAMP-cryptate conjugate in lysis buffer are incubated with the treated cells at room temperature for 1 hour (mGlu2) or 1.5 hour (mGlu3). The HTRF signal is detected using an EnVision plate reader (Perkin-Elmer) to calculate the ratio of fluorescence at […]. The raw data are converted to cAMP amount (pmole/well) using a cAMP standard curve generated for each experiment. Relative IC50 values are calculated from the top-bottom range of the concentration response curve using a four-parameter logistic curve fitting program (ActivityBase v5.3.1.22).

human mGlu8 receptor = target: T2, human mGlu8 receptor (Homo sapiens, UniProt O00222); assay: FLIPR calcium assay for mGlu receptor selectivity, mGlu8 antagonist mode; format: cell-based; conditions: for inhibition at 12.5 µM: inhibition of EC90 glutamate response, read-out: mGlu8 % inhib. @12.5 μM; for IC50: printed in brackets below the % inhib. value
T2 construct: expressed in transfected cells; host or cells: AV12 cells, co-expressing rat EAAT1 and Galpha15
Text: FLIPR and cAMP Assays for mGlu Receptor Selectivity
The relative antagonist potencies of the compounds of the invention for the other human mGlu receptors can be assessed with either a cAMP assay or fluorometric calcium response assay (see for example Fell et al., JPET (in press)). Briefly, individual AV12 cell lines containing the rat EAAT1 glutamate transporter and stably expressing the human mGlu1, 2, 3, 4, 5, 6, & 8 receptors are used for these studies. The mGlu1 and 5 receptors are […], so they naturally signal through phospholipase C, producing a calcium flux response which can be used to measure receptor activation using a Fluorometric Imaging Plate Reader (FLIPR, Molecular Devices). The cell lines expressing the mGlu2, 3, 4, and 8 receptor are designed to express the Gα15 subunit so that these Gi-coupled receptors will generate a calcium flux response similar to the mGlu1 and 5 receptor expressing cell lines. The mGlu6 receptor is tested in a cAMP format using methods analogous to those developed for mGlu2 and mGlu3 above. These cell lines are maintained as previously described except that amounts of L-glutamine and selection agents (geneticin, hygromycin B, zeocin, and blasticidin) may vary depending on the cell line. Confluent cultures are passaged biweekly.
Intracellular calcium levels are monitored using FLIPR before and after the addition of test compounds and Fluo-3 AM (Invitrogen) or Calcium 4 (Molecular Devices) dye, depending on the cell line. Cells are plated 24 hours prior to assay in a variable concentration of glutamine and a variable density of cells per well, depending on the cell line. The medium is removed and the cells are incubated with 8 μM of dye (50 μl per well) for 90 or 120 minutes (depending on cell line) at 25° C. A single-addition FLIPR assay generating an 11-point concentration response curve for the agonist glutamate is conducted prior to each experiment to confirm the appropriate sensitivity of the cells. The results are analyzed using GraphPad Prism v4.03 to calculate the concentrations of glutamate needed to induce the EC90 (antagonist assay) and EC10 (potentiator assay) responses.
Compounds are tested at each mGlu receptor in a two-addition FLIPR assay using a 10-point concentration response profile starting at a final concentration of 25 μM for the agonist assay and 12.5 μM for the potentiator and antagonist assays. The first addition detects any agonist activity, and the second addition consists of 100 μl of select concentrations (depending on cell line) of glutamate in assay buffer generating an EC10 or EC90 glutamate response. Agonist effects are quantified as percent stimulation induced by compound alone relative to the maximal glutamate response. Antagonist effects are quantified by calculating the percent inhibition of the EC90 glutamate response caused by the compound. Potentiation effects are quantified as percent increase in the presence of an EC10 response in glutamate relative to the ECmax response. All data are calculated as relative IC50 or EC50 values using a four-parameter logistic curve fitting program (ActivityBase v5.3.1.22).

T1 sequence (Q14832 23-879): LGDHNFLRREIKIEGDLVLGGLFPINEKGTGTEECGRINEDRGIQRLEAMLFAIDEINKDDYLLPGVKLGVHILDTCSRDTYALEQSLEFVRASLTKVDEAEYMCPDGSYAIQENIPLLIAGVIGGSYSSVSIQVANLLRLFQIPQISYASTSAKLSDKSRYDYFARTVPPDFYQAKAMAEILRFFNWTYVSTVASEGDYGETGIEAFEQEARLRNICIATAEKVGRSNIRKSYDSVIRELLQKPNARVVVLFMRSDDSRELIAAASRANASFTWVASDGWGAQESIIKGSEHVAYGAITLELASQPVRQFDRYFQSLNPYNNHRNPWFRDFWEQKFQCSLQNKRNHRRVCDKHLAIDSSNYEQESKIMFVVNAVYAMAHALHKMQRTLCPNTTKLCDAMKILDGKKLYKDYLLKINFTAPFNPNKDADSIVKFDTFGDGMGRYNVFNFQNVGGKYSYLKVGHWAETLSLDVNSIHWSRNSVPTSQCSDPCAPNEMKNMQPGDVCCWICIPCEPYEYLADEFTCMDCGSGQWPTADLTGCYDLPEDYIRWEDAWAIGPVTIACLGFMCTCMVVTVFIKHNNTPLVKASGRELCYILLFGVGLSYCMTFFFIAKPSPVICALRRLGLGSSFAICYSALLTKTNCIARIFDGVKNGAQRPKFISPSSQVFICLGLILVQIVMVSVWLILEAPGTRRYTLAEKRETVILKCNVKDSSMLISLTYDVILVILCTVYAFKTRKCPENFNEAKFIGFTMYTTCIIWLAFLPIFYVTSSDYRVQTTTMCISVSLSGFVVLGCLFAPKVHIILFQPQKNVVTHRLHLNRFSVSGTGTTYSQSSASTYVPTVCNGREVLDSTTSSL
T2 sequence (O00222 34-908): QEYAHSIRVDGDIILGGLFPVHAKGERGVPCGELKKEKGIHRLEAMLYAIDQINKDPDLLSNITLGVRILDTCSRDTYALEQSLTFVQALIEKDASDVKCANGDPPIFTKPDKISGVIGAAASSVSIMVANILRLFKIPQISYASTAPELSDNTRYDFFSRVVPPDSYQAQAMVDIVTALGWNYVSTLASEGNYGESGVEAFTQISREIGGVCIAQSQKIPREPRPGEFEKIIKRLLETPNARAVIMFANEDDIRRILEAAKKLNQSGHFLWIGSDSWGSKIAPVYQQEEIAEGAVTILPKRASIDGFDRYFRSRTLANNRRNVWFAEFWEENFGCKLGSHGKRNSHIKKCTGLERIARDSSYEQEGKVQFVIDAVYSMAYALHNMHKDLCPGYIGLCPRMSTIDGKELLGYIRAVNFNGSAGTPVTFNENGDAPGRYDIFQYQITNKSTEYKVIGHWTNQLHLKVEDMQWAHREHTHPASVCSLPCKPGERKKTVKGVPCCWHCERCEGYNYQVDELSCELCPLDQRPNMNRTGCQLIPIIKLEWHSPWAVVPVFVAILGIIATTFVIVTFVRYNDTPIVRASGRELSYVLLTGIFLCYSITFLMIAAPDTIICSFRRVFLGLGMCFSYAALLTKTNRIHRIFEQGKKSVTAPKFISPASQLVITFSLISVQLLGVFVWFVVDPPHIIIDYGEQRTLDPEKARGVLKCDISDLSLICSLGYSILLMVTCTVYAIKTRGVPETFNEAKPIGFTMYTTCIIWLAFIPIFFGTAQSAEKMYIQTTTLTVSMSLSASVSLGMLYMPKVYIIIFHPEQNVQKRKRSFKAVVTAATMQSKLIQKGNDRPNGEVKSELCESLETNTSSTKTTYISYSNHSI

IC50 (human mGlu3 receptors) [nM]	inhibition at 12.5 µM (human mGlu8 receptor) [%]	IC50 (human mGlu8 receptor) [nM]	SMILES
34.8 ± 6.9	46.7		Cl.Cn1cnc(S[C@H]2[C@H]3[C@H](C(=O)O)[C@H]3[C@](N)(C(=O)O)[C@@H]2OCc2ccc(Cl)c(Cl)c2)n1 [Example 7, (1R,2R,3S,4S,5R,6R)-2-Amino-3-[(3,4-dichlorophenyl)methoxy]-4-[(1-methyl-1,2,4-triazol-3-yl)sulfanyl]bicyclo[3.1.0]hexane-2,6-dicarboxylic acid hydrochloride.]
4.4 ± 0.5	13.3		Cl.N[C@]1(C(=O)O)[C@@H]2[C@@H](C(=O)O)[C@@H]2[C@H](NC(=O)CO)[C@H]1OCc1ccc(Cl)c(Cl)c1 [Example 9, (1S,2R,3R,4S,5R,6S)-2-Amino-3-[(3,4-dichlorobenzyl)oxy]-4-[(hydroxyacetyl)amino]bicyclo[3.1.0]hexane-2,6-dicarboxylic acid hydrochloride]
7.8	92.3	507	N[C@]1(C(=O)O)[C@@H]2[C@@H](C(=O)O)[C@@H]2[C@H](Sc2nc[nH]n2)[C@H]1OCc1ccc(Cl)c(Cl)c1 [Example 2, (1R,2R,3S,4S,5R,6R)-2-Amino-3-[(3,4-dichlorobenzyl)oxy]-4-(1H-1,2,4-triazol-3-ylsulfanyl)bicyclo[3.1.0]hexane-2,6-dicarboxylic acid]
27.2 ± 4.2	78.4	1900	N[C@]1(C(=O)O)[C@@H]2[C@@H](C(=O)O)[C@@H]2[C@H](O)[C@H]1OCc1ccc(Cl)c(Cl)c1 [Example 1, (1S,2R,3S,4S,5R,6R)-2-Amino-3-[(3,4-dichlorobenzyl)oxy]-4-hydroxybicyclo[3.1.0]hexane-2,6-dicarboxylic acid]

SMILES	IC50 (human mGlu3 receptors) [nM]	inhibition at 12.5 µM (human mGlu8 receptor) [%]	IC50 (human mGlu8 receptor) [nM]
CC(=O)N[C@H]1[C@H]2[C@H](C(=O)O)[C@H]2[C@](N)(C(=O)O)[C@@H]1OCc1ccc(Cl)c(Cl)c1 [Example 4, (1S,2R,3R,4S,5R,6S)-4-(Acetylamino)-2-amino-3-[(3,4-dichlorobenzyl)oxy]bicyclo[3.1.0]hexane-2,6-dicarboxylic acid]	8.2 ± 0.3	23.4	

Reference: patent US9056844B2, “4-substituted-3-benzyloxy-bicyclo[3.1.0]hexane compounds as mGluR 2/3 antagonists” (Eli Lilly and Company, priority 2010, dated 2015)
